This passage reports EC50 and IC50 results from US8217035B2, “Pyrimidine derivatives used as PI-3-kinase inhibitors” (Novartis AG, priority 2006, dated 2012).

The test system of experiment [1] is A2780 ovarian cancer cells. The experiment in a line: Cellular proliferation in A2780 cells, Cell Titer Glo (Biological Method 4). The class given is cell-based. Conditions: Homo sapiens. An outline of the steps:
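Viability after 72 h compound exposure (37 °C, 5% CO2) was read by Cell Titer Glo and an EC50 derived, each condition in duplicate. A2780 ovarian cells had been plated at 1,000 per well in DMEM/10% FBS at least 2 h beforehand.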
(ATP-based viability assays read luminescence as a measure of living cells.)

The target in another experiment is PI3 kinase alpha (Homo sapiens, UniProt P42336). The experiment in a line: PI3K ATP depletion assay (Biological Method 1, Assay 3; KinaseGlo luminescence). The class given is biochemical. Particulars: ATP depletion assay, read-out: PI3 Kinase Alpha, IC50. An outline of the steps: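 Compound in DMSO was mixed with 10 nM PI3 kinase and 5 μg/mL phosphatidylinositol, and the reaction was started with 2 μM ATP. It ran to about 50% ATP depletion and was stopped with KinaseGlo.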
Sequence of PI3 kinase alpha (P42336 whole entry): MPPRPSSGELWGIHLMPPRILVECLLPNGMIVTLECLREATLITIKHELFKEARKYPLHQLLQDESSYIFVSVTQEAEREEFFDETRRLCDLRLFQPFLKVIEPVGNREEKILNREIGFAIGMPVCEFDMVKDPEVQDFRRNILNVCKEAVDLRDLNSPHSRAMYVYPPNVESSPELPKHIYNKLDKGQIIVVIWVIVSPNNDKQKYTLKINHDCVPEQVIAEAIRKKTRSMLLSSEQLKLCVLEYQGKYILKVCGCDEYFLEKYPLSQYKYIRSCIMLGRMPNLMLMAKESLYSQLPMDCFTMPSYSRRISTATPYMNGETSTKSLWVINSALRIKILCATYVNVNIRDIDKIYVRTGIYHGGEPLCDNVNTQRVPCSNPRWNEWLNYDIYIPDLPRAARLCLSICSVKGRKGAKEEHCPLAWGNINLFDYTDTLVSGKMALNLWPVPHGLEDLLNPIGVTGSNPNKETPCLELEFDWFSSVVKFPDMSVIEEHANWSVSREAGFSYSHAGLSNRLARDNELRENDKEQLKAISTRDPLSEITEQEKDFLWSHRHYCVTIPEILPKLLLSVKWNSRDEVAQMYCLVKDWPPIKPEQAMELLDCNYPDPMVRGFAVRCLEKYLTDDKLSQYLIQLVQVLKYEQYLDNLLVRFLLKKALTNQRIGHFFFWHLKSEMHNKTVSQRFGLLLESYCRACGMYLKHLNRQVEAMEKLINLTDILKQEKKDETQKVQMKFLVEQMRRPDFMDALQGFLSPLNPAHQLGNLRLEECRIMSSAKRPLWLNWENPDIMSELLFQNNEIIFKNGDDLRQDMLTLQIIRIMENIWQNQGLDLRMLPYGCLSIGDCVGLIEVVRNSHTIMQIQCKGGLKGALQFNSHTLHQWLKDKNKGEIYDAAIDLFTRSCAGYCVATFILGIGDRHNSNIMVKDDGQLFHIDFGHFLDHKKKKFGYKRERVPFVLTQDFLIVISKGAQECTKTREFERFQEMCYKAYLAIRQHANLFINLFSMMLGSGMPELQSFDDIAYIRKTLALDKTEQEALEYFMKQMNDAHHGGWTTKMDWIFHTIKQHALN
Sequence of PI3 kinase alpha (P27986 whole entry partner): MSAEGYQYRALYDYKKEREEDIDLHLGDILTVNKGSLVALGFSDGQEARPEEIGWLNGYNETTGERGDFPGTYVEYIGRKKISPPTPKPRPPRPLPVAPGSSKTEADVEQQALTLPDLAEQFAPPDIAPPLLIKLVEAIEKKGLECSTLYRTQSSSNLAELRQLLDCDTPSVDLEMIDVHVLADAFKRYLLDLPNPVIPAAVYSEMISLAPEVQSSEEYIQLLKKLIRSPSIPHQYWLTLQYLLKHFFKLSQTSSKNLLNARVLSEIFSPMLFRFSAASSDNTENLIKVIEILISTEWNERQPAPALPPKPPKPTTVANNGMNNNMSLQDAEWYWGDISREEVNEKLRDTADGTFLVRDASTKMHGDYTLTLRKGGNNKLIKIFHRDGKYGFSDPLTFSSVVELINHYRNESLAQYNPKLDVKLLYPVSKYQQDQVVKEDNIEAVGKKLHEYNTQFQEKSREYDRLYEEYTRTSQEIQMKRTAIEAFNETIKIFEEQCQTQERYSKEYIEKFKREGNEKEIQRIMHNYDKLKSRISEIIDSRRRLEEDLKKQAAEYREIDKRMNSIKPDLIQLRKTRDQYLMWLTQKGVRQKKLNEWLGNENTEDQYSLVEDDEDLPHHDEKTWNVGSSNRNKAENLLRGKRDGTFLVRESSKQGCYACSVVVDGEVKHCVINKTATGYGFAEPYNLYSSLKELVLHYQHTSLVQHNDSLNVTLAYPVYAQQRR

Setting [2] is: ovarian cancer cell line A2780, Biological Method 4.

pEC50, pIC50: −log10 of the molar value. Where two headings read alike, the source gives them in different places.

`Nc1ccc(-c2cc(Nc3ccc4c(c3)OCCO4)nc(N3CCOCC3)n2)cn1` [Compound 386]: the pEC50 (usually the EC50 on a negative log10 scale, so that one unit is a factor of ten) in experiment [1] (setting [2]) was above 5.00. Besides, the pIC50 (usually the negative decadic logarithm of the IC50, by convention in mol/L) at PI3 kinase alpha (Biological Method 1) was above 6.00.
As to `Nc1ccc(-c2cc(N3CCOc4ccccc43)nc(N3CCOCC3)n2)cn1` [Compound 387], the pEC50 in experiment [1] (setting [2]) is above 5.00. Further, the negative logarithm of the IC50 (pIC50) on PI3 kinase alpha (Biological Method 1) is above 6.00.
For the molecule `Nc1ncc(-c2cc(Nc3cnccc3C(F)(F)F)nc(N3CCOCC3)n2)cn1` [Compound 390], in experiment [1] (setting [2]), the pEC50 was above 5.00. Also, at PI3 kinase alpha (Biological Method 1), the pIC50 is above 6.00.
For `Nc1ncc(-c2cc(N3CCNC(=O)C3)nc(N3CCOCC3)n2)cn1` [Compound 392], in that order: above 5.00 and above 6.00.
The corresponding values for `Nc1ncc(-c2cc(Nc3ccccc3C(F)(F)F)nc(N3CCOCC3)n2)cn1` [Compound 393] are above 5.00 and above 6.00.
As to `Nc1ncc(-c2cc(N3CCCC3)nc(N3CCOCC3)n2)cn1` [Compound 399], in experiment [1] (ovarian cancer cell line A2780), the pEC50 is above 5.00. The negative logarithm of the IC50 (pIC50) on PI3 kinase alpha was above 6.00.
On to `CN(C)c1cc(-c2cnc(N)nc2)nc(N2CCOCC2)n1` [Compound 400], for which the pEC50 in experiment [1] (ovarian cancer cell line A2780) is above 5.00. Also, at PI3 kinase alpha, the pIC50 was above 6.00.
On to `CNc1cc(-c2cnc(N)nc2)nc(N2CCOCC2)n1` [Compound 401], for which the pEC50 in experiment [1] (ovarian cancer cell line A2780) was above 4.60. The pIC50 at PI3 kinase alpha is above 6.00.
Regarding `Nc1ncc(-c2cc(NC3CC3)nc(N3CCOCC3)n2)cn1` [Compound 402], in experiment [1] (ovarian cancer cell line A2780), the pEC50 is above 5.00. On PI3 kinase alpha, the pIC50 was above 6.00.
For `Nc1ncc(-c2cc(N3CCc4ccccc4C3)nc(N3CCOCC3)n2)cn1` [Compound 403], in that order: above 5.00 and above 6.00.
For `CN(c1cc(-c2cnc(N)nc2)nc(N2CCOCC2)n1)C1CCCCC1` [Compound 404], in that order: above 5.00 and above 6.00.
`Nc1ncc(-c2cc(NC3CCCCC3)nc(N3CCOCC3)n2)cn1` [Compound 405] had a negative logarithm of the EC50 (pEC50) in experiment [1] (ovarian cancer cell line A2780) above 5.00. For the same molecule, at PI3 kinase alpha, the pIC50 was above 6.00.
`Nc1ncc(-c2cc(NCC3CCCCC3)nc(N3CCOCC3)n2)cn1` [Compound 406]: the pEC50 in experiment [1] (ovarian cancer cell line A2780) was above 4.60. The pIC50 at PI3 kinase alpha was above 6.00.
In experiment [1] (ovarian cancer cell line A2780), `Nc1ncc(-c2cc(N3CCCC3Cc3ccccc3)nc(N3CCOCC3)n2)cn1` (centres unmarked) [Compound 407] had a pEC50 above 5.00. Besides, the negative logarithm of the IC50 (pIC50) at PI3 kinase alpha is above 6.00.
Regarding `Nc1ncc(-c2cc(Nc3ccnc4cc(C(F)(F)F)ccc34)nc(N3CCOCC3)n2)cn1` [Compound 409], the pEC50 in experiment [1] (ovarian cancer cell line A2780) is above 6.00. Moreover, the pIC50 at PI3 kinase alpha is above 6.00.
Take `Nc1ncc(-c2cc(Nc3ccnc4ccc(C(F)(F)F)cc34)nc(N3CCOCC3)n2)cn1` [Compound 410]: in experiment [1] (ovarian cancer cell line A2780), the pEC50 is above 5.00. The pIC50 at PI3 kinase alpha was above 6.00.
For `Nc1ncc(-c2cc(N3CCCc4ccccc43)nc(N3CCOCC3)n2)cn1` [Compound 411], in that order: above 5.00 and above 6.00.
As to `Nc1ncc(-c2cc(Nc3ccc4c(c3)OCC(=O)N4)nc(N3CCOCC3)n2)cn1` [Compound 412], the pEC50 in experiment [1] (ovarian cancer cell line A2780) was above 6.00. Moreover, the pIC50 at PI3 kinase alpha is above 6.00.
`Nc1ncc(-c2cc(Nc3ccc4c(c3)NC(=O)CO4)nc(N3CCOCC3)n2)cn1` [Compound 413] showed a pEC50 in experiment [1] (ovarian cancer cell line A2780) above 5.00. Moreover, the pIC50 at PI3 kinase alpha was above 6.00.
`N#Cc1cc(-c2ccc(N)nc2)nc(N2CCOCC2)n1` [Compound 415] gave a pEC50 in experiment [1] (ovarian cancer cell line A2780) above 4.60. The pIC50 at PI3 kinase alpha was above 6.00.
In the case of `N#Cc1cc(N)ncc1-c1cc(-c2cccnc2F)nc(N2CCOCC2)n1` [Compound 417], in experiment [1] (ovarian cancer cell line A2780), the pEC50 is above 4.60. Besides, the pIC50 at PI3 kinase alpha was above 6.00.
In turn, `N#Cc1cnc(N2CCOCC2)nc1-c1cnc(N)nc1` [Compound 418] had a pEC50 in experiment [1] (ovarian cancer cell line A2780) above 4.60. Moreover, the pIC50 at PI3 kinase alpha was above 6.00.
In experiment [1] (ovarian cancer cell line A2780), `Nc1ncc(-c2nc(N3CCOCC3)ncc2C(=O)N2CCNC(=O)C2)cn1` [Compound 427] showed a negative logarithm of the EC50 (pEC50) above 4.60. The pIC50 at PI3 kinase alpha was above 5.00.
The corresponding values for `CN1CCN(C(=O)c2cnc(N3CCOCC3)nc2-c2cnc(N)nc2)CC1` [Compound 428] are above 4.60 and above 5.00.
`COC(=O)c1cnc(N2CCOCC2)nc1-c1cnc(N)nc1` [Compound 431] showed a pEC50 in experiment [1] (ovarian cancer cell line A2780) above 4.60. Moreover, at PI3 kinase alpha, the pIC50 was above 6.00.
As to `CC(C)Oc1ccnc(Nc2cc(-c3cnc(N)cc3C(F)(F)F)nc(N3CCOCC3)n2)c1` [Compound 432], the pEC50 in experiment [1] (ovarian cancer cell line A2780) was above 5.00. Also, the pIC50 on PI3 kinase alpha is above 6.00.
The corresponding values for `Nc1ccc(-c2cc(Nc3cc(F)ccc3F)nc(N3CCOCC3)n2)cn1` [Compound 436] are above 5.00 and above 6.00.
For `N#Cc1cccc(Nc2cc(-c3ccc(N)nc3)nc(N3CCOCC3)n2)c1` [Compound 437], in that order: above 5.00 and above 6.00.
As to `Nc1ccc(-c2cc(Nc3ccc4ccccc4n3)nc(N3CCOCC3)n2)cn1` [Compound 438], the pEC50 in experiment [1] (ovarian cancer cell line A2780) is above 5.00. Besides, the pIC50 on PI3 kinase alpha is above 6.00.
For `Nc1ccc(-c2cc(Nc3cccc(F)c3)nc(N3CCOCC3)n2)cn1` [Compound 439], in that order: above 5.00 and above 6.00.
Regarding `Nc1ccc(-c2cc(Nc3ccccc3F)nc(N3CCOCC3)n2)cn1` [Compound 440], in experiment [1] (ovarian cancer cell line A2780), the pEC50 was above 5.00. Moreover, at PI3 kinase alpha, the negative logarithm of the IC50 (pIC50) was above 6.00.
In experiment [1] (ovarian cancer cell line A2780), `N#Cc1ccccc1Nc1cc(-c2ccc(N)nc2)nc(N2CCOCC2)n1` [Compound 441] had a pEC50 above 5.00. The negative logarithm of the IC50 (pIC50) on PI3 kinase alpha is above 6.00.
For `COc1ccc(Nc2cc(-c3ccc(N)nc3)nc(N3CCOCC3)n2)cc1` [Compound 442], in experiment [1] (ovarian cancer cell line A2780), the pEC50 was above 5.00. Also, the pIC50 at PI3 kinase alpha is above 6.00.
In experiment [1] (ovarian cancer cell line A2780), `Nc1cc(C(F)(F)F)c(-c2cc(Nc3ccc4c(c3)OCCO4)nc(N3CCOCC3)n2)cn1` [Compound 446] had a pEC50 above 4.60. On PI3 kinase alpha, the pIC50 was above 6.00.
Regarding `Nc1cc(C(F)(F)F)c(-c2cc(Nc3ccncc3)nc(N3CCOCC3)n2)cn1` [Compound 447], the pEC50 in experiment [1] (ovarian cancer cell line A2780) was above 4.60. For the same molecule, on PI3 kinase alpha, the pIC50 was above 6.00.
The corresponding values for `COc1ncccc1Nc1cc(-c2ccc(N)nc2)nc(N2CCOCC2)n1` [Compound 448] are above 5.00 and above 6.00.
Regarding `N#Cc1ccccc1Nc1cc(-c2cnc(N)nc2)nc(N2CCOCC2)n1` [Compound 449], the pEC50 in experiment [1] (ovarian cancer cell line A2780) was above 5.00. Moreover, the pIC50 at PI3 kinase alpha is above 6.00.
`Cc1cc(Nc2cc(-c3cnc(N)[nH]c3=O)nc(N3CCOCC3)n2)ccn1` [Compound 451] had a pEC50 in experiment [1] (ovarian cancer cell line A2780) above 5.00. Further, the pIC50 on PI3 kinase alpha is above 6.00.
For `COC(=O)N1CCC[C@@H](Oc2cc(-c3cnc(N)cc3C(F)(F)F)nc(N3CCOCC3)n2)C1` [Compound 452], in that order: above 5.00 and above 6.00.
The molecule `CC(=O)N1CCC[C@@H](Oc2cc(-c3cnc(N)cc3C(F)(F)F)nc(N3CCOCC3)n2)C1` [Compound 453] had a pEC50 in experiment [1] (ovarian cancer cell line A2780) above 5.00. Moreover, the negative-log IC50 (pIC50) at PI3 kinase alpha was above 6.00.
For `COC(=O)N1CCC[C@H](Oc2cc(-c3cnc(N)cc3C(F)(F)F)nc(N3CCOCC3)n2)C1` [Compound 454], in that order: above 5.00 and above 6.00.
The corresponding values for `CC(=O)N1CCC[C@H](Oc2cc(-c3cnc(N)cc3C(F)(F)F)nc(N3CCOCC3)n2)C1` [Compound 455] are above 5.00 and above 6.00.
`CC(C)(C)OC(=O)N1CCC(Oc2cc(-c3cnc(N)cc3C(F)(F)F)nc(N3CCOCC3)n2)CC1` [Compound 456] had a pEC50 in experiment [1] (ovarian cancer cell line A2780) above 5.00. Moreover, on PI3 kinase alpha, the pIC50 is above 6.00.
